Data: patent publication US11638713B2, “Patentiflorin A analogs as antiviral agents” (priority 2019, dated 2023)

Tests used:
H5N1 virus = test: microbe, parasite or virus in culture; assay type: cell-based, H5N1 influenza virus; conditions: Influenza A virus; for inhibition at 0.1 µg/mL: H5N1, A549, 100 ng/mL; for inhibition at 0.5 µg/mL: H5N1, A549, 500 ng/mL; for EC50: H5N1, A549, read-out: EC50 against H5N1 virus; for inhibition at 0.05 µg/mL: H5N1, A549, 50 ng/mL
EBOV (Ebola virus) = test: microbe, parasite or virus in culture; assay type: cell-based; conditions: Zaire ebolavirus; for EC50: A549, read-out: EC50 against EBOV; for inhibition at 0.1 µg/mL: 100 ng/mL; for inhibition at 0.5 µg/mL: 500 ng/mL; for inhibition at 0.05 µg/mL: 50 ng/mL
[1] = system: VSV (vesicular stomatitis virus); test: microbe, parasite or virus in culture; assay type: cell-based; conditions: for inhibition at 0.1 µg/mL: A549, 100 ng/mL; for inhibition at 0.5 µg/mL: A549, 500 ng/mL; for EC50: A549, read-out: EC50 against VSV; for inhibition at 0.05 µg/mL: A549, 50 ng/mL
SARS-CoV-2 = test: microbe, parasite or virus in culture; assay type: cell-based; conditions: Severe acute respiratory syndrome coronavirus 2, HepG2, read-out: EC50 against SARS-CoV-2
A549 cells = test: cells; conditions: Homo sapiens, A549, read-out: % Inhibition against A549 cells
in vitro = conditions: human
HIV = test: microbe, parasite or virus in culture; assay type: cell-based
[2] = read-out: % Inhibition against H5N1 virus
[3] = A549, read-out: % Inhibition against EBOV
[4] = read-out: % Inhibition against VSV
[5] = CC50 against the host cell line A549

Structure (SMILES)	EC50 (H5N1 virus)	EC50 (EBOV (Ebola virus))	EC50 [1]	EC50 (SARS-CoV-2)	CC50 (in vitro; CC50 (nM))	CC50 (in vitro; [5])	other results
COc1cc2c(OC3O[C@H](CO)[C@H](O)[C@@H]4OC(C)(C)O[C@@H]34)c3c(c(-c4ccc5c(c4)OCO5)c2cc1OC)C(=O)OC3 (stereo partly drawn) [Compound 32d, 2″,3″-Acetonide-4-O-β-D-galactopyranosyldiphyllin]	200 nM	396 nM	286 nM	80.4 nM	52.7 nM	1350 nM	inhibition at 0.1 µg/mL (H5N1 virus; [2]): 19.3%; inhibition at 0.5 µg/mL (H5N1 virus; [2]): 83.5%; inhibition at 0.1 µg/mL (EBOV (Ebola virus); [3]): 65.5%; inhibition at 0.5 µg/mL (EBOV (Ebola virus); [3]): 82.7%; inhibition at 0.1 µg/mL [1, 4]: 100%; inhibition at 0.5 µg/mL [1, 4]: 71.7%; inhibition at 0.1 µg/mL (A549 cells): -2%; inhibition at 0.5 µg/mL (A549 cells): 24.3%
COc1cc2c(OC3O[C@@H]4COC(C)(C)O[C@@H]4[C@H](O)[C@H]3O)c3c(c(-c4ccc5c(c4)OCO5)c2cc1OC)C(=O)OC3 (stereo partly drawn) [Compound 32c, 4″,6″-Acetonide-4-O-β-D-galactopyranosyldiphyllin]	5.2 nM	20.3 nM	124 nM	50.8 nM	52.7 nM	1040 nM	inhibition at 0.1 µg/mL (H5N1 virus; [2]): 65.1%; inhibition at 0.5 µg/mL (H5N1 virus; [2]): 88.1%; inhibition at 0.1 µg/mL (EBOV (Ebola virus); [3]): 85.5%; inhibition at 0.5 µg/mL (EBOV (Ebola virus); [3]): 88.2%; inhibition at 0.1 µg/mL [1, 4]: 48.9%; inhibition at 0.5 µg/mL [1, 4]: 88.1%; inhibition at 0.1 µg/mL (A549 cells): 2.9%; inhibition at 0.5 µg/mL (A549 cells): 39.7%
COc1cc2c(OC3O[C@H](C)[C@H](O)[C@H](O)[C@H]3O)c3c(c(-c4ccc5c(c4)OCO5)c2cc1OC)C(=O)OC3 (stereo partly drawn) [Compound 26e, 7-O-β-D-fucopyranosyldiphyllin]				30.4 nM	> 9500 nM		anti-HIV activity (inhibition) (HIV; at 9496.9 nM): no inhibition; inhibition at 1 µg/mL (H5N1 virus; H5N1, A549, 1000 ng/mL, read-out: % Inhibition against H5N1 virus): 48.5%; inhibition at 5 µg/mL (H5N1 virus; H5N1, A549, 5000 ng/mL, read-out: % Inhibition against H5N1 virus): 88.9%
COc1cc2c(OC3O[C@H](CO)[C@H]4OC(C)(C)O[C@@H]4[C@H]3O)c3c(c(-c4ccc5c(c4)OCO5)c2cc1OC)C(=O)OC3 (stereo partly drawn) [Compound 32a, 3″, 4″-Acetonide-4-O-β-D-glucopyranosyldiphyllin]	0.63 nM	1.2 nM	18.1 nM	2.95 nM	52.7 nM	61.6 nM	
C=CCOC(=O)O[C@@H]1COC(Oc2c3c(c(-c4ccc5c(c4)OCO5)c4cc(OC)c(OC)cc24)C(=O)OC3)[C@H](O)[C@H]1OC(C)=O (stereo partly drawn) [Compound 28ab1, 4″-O-allyl oxycarbonyl-3″-acetyl-7-O-β-D-xylosyldiphyllin]	5.05 nM	18.9 nM	3.78 nM	26.3 nM	513 nM	190 nM	inhibition at 0.0125 µg/mL (H5N1 virus; H5N1, A549, 12.5 ng/mL, read-out: % Inhibition against H5N1 virus): 91.8%; inhibition at 0.05 µg/mL (H5N1 virus; [2]): 86%; inhibition at 0.0125 µg/mL (EBOV (Ebola virus); A549, 12.5 ng/mL, read-out: % Inhibition against EBOV): 81%; inhibition at 0.05 µg/mL (EBOV (Ebola virus); [3]): 82.4%; inhibition at 0.0125 µg/mL ([1]; A549, 12.5 ng/mL, read-out: % Inhibition against VSV): 85.9%; inhibition at 0.05 µg/mL [1, 4]: 83.5%; inhibition at 0.0125 µg/mL (A549 cells): 35.5%; inhibition at 0.05 µg/mL (A549 cells): 40.9%
COc1cc2c(OC3O[C@H](C)[C@@H](O)[C@H](O)[C@H]3O)c3c(c(-c4ccc5c(c4)OCO5)c2cc1OC)C(=O)OC3 (some centres unmarked) [Compound 26b, Patentiflorin A]	4.48 nM	54.8 nM	42.5 nM	67.2 nM	347 nM	386 nM	EC50 (HIV; Human immunodeficiency virus 1, A549): 21.1 nM
COc1cc2c(OC3O[C@H](CO)[C@@H]4OC(C)(C)O[C@@H]4[C@H]3O)c3c(c(-c4ccc5c(c4)OCO5)c2cc1OC)C(=O)OC3 (stereo partly drawn) [Compound 32b, 3″, 4″-Acetonide-4-O-β-D-galactopyranosyldiphyllin]	0.77 nM	0.85 nM	3.15 nM	3.01 nM	52.7 nM	30.7 nM	inhibition at 0.01 µg/mL (H5N1 virus; H5N1, A549, 10 ng/mL, read-out: % Inhibition against H5N1 virus): 91.7%; inhibition at 0.05 µg/mL (H5N1 virus; [2]): 88.1%; inhibition at 0.01 µg/mL (EBOV (Ebola virus); A549, 10 ng/mL, read-out: % Inhibition against EBOV): 86.4%; inhibition at 0.05 µg/mL (EBOV (Ebola virus); [3]): 92.7%; inhibition at 0.01 µg/mL ([1]; A549, 10 ng/mL, read-out: % Inhibition against VSV): 90.9%; inhibition at 0.05 µg/mL [1, 4]: 99.6%; inhibition at 0.01 µg/mL (A549 cells): 40.5%; inhibition at 0.05 µg/mL (A549 cells): 76%
